Reference: ChEMBL document CHEMBL1129800, “Cycloalkylpyranones and cycloalkyldihydropyrones as HIV protease inhibitors: exploring the impact of ring size on structure-activity relationships” (J Med Chem, 1996)

Experiments:
[1] = molecular target: Human immunodeficiency virus type 1 protease (Human immunodeficiency virus 1, UniProt Q72874); test: Binding affinity towards HIV protease was determined
H9 [2] = test: Effective dose for antiviral activity against HIV-1-infected H-9 cells; type: functional; details: Homo sapiens, read-out: ED50 (the source's name)
H9 [3] = test: Compound at 3 uM was tested for antiviral activity against HIV-1-infected H-9 cells; type: functional; details: Homo sapiens

Structure (SMILES)	Ki [1]	EC50 (H9 [2])	inhibition at 3 µM (H9 [3])
CCC(c1cccc(NS(=O)(=O)c2ccc(C#N)cn2)c1)c1c(O)c2c(oc1=O)CCC2 (stereo unspecified)	0.075 nM	8600 nM	
CC(C)(C)C(C1=C(O)OC2CCCCCCC2C1=O)c1cccc(NS(=O)(=O)c2ccc(C#N)cc2)c1 (stereo unspecified)	0.2 nM	2500 nM	
CCC(c1ccccc1)c1c(O)c2c(oc1=O)CCC2 (stereo unspecified)	700 nM		
CCC(c1ccccc1)c1c(O)c2ccccc2oc1=O (stereo unspecified) [PHENPROCOUMON]	800 nM		
CCC(C1=C(O)C2CCCCC2OC1=O)c1cccc(NS(=O)(=O)c2ccc(C#N)cn2)c1 (stereo unspecified)	0.05 nM	950 nM	
CCC(c1ccccc1)c1c(O)c2c(oc1=O)CCCC2 (stereo unspecified)	1100 nM		

Further lines, with some results ahead:

Ki [1]	EC50 (H9 [2])	Structure (SMILES)	inhibition at 3 µM (H9 [3])
> 2000 nM		CCC(C1=C(O)OC2CCCC2C1=O)c1ccccc1 (stereo unspecified)	
1200 nM		CCC(C1=C(O)OC2CCCCCCC2C1=O)c1ccccc1 (stereo unspecified)	
> 2000 nM		CCC(c1ccccc1)c1c(O)c2c(oc1=O)CCCCCCC2 (stereo unspecified)	
670 nM		CCC(C1=C(O)OC2CCCCC2C1=O)c1ccccc1 (stereo unspecified)	
> 1200 nM		CCC(C1=C(O)OC2CCCCCC2C1=O)c1ccccc1 (stereo unspecified)	
15 nM		CCC(C1=C(O)OC2CCCCC2C1=O)c1cccc(NS(=O)(=O)c2ccc(C#N)cc2)c1 (stereo unspecified)	< 10%
